Like-named read-outs stand apart in the source and are kept apart here.
Tests used:
[1] = cited from earlier work
[2] = Population pharmacokinetic model; conditions: for CLp, typical value of apparent clearance / Vp, typical value of apparent volume of distribution: estimate (% standard error), SEM
[3] = Therapeutic drug monitoring of serum vancomycin concentrations; conditions: serum TDM samples, SD
Gram-positive bacteria = conditions: 29 of 180 cases with Gram-positive isolates detected
[4] = test system: Gram-positive bacteria / MRSA; conditions: cited from earlier work
[5] = cited from earlier work; remark: listed apart in the source
[6] = test system: Patient bacterial isolates (Gram-positive); experiment: MIC of vancomycin for patient bacterial isolates; format: cell-based; conditions: majority of clinical isolates of the two study institutions, broth microdilution
[7] = bootstrap of final model, 996/1000 runs successful

## CN[C@H](CC(C)C)C(=O)N[C@H]1C(=O)N[C@@H](CC(N)=O)C(=O)N[C@H]2C(=O)N[C@H]3C(=O)N[C@H](C(=O)N[C@H](C(=O)O)c4cc(O)cc(O)c4-c4cc3ccc4O)[C@H](O)c3ccc(c(Cl)c3)Oc3cc2cc(c3O[C@@H]2O[C@H](CO)[C@@H](O)[C@H](O)[C@H]2O[C@H]2C[C@](C)(N)[C@H](O)[C@H](C)O2)Oc2ccc(cc2Cl)[C@H]1O [vancomycin]
[1]; Chinese children
  AUC0-24 threshold for predicting vancomycin-associated nephrotoxicity: < 537 µg·h/mL
[1]; Chinese neonates
  AUC0-24 threshold for predicting vancomycin-associated nephrotoxicity: < 480 µg·h/mL
[2]; [7]
  CLage>2, bootstrap median: 2.56 L/h
  CLage≤2, bootstrap median: 1.97 L/h
  Vd, bootstrap median: 22.2 L
[2]; candidate Model I, 3/4 allometric model
  CLp, typical value of apparent clearance: 2.09 (4.3) L/h
[2]; candidate Model I
  Vp, typical value of apparent volume of distribution: 40.9 (14.6) L
[2]; candidate Model II, allometric model
  CLp, typical value of apparent clearance: 2.10 (4.0) L/h
[2]; candidate Model II
  Vp, typical value of apparent volume of distribution: 23.8 (28.2) L
[2]; candidate Model III
  Vp, typical value of apparent volume of distribution: 40.8 (14.5) L
[2]; candidate Model IV
  Vp, typical value of apparent volume of distribution: 23.0 (25.5) L
[2]; candidate Model V, BW-dependent exponent model
  CLp, typical value of apparent clearance: 2.30 (5.0) L/h
[2]; candidate Model V
  Vp, typical value of apparent volume of distribution: 23.3 (27.1) L
[2]; candidate Model VI, age-dependent exponent model
  CLp, typical value of apparent clearance: 2.42 (5.5) L/h
[2]; candidate Model VI
  Vp, typical value of apparent volume of distribution: 22.7 (25.5) L
[2]; final PPK model, age >2 years old
  weight-adjusted typical CL: 3.6 mL/min/kg
[2]; final PPK model, age >2 years old, typical value at BW 12 kg and CLcr 75 mL/min
  CLage>2, final model estimate: 2.59 L/h
[2]; final PPK model, age ≤2 years old
  weight-adjusted typical CL: 2.75 mL/min/kg
[2]; final PPK model, age ≤2 years old, typical value at BW 12 kg and CLcr 75 mL/min
  CLage≤2, final model estimate: 1.98 L/h
[2]; final PPK model, typical value at BW 12 kg
  Vd, final model estimate: 22.4 L
[3]; model validation dataset N = 67, 76 concentrations
  Vancomycin concentration, mean ± standard deviation: 6.89 ± 2.63 mg/L
[3]; model-building dataset N1 = 210, 272 concentrations
  Vancomycin concentration, mean ± standard deviation: 8.7 ± 6.0 mg/L
[3]; model-building dataset N2 = 176, 249 concentrations
  Vancomycin concentration, mean ± standard deviation: 8.27 ± 5.85 mg/L
[3]; model-building dataset Total = 386, 521 concentrations
  Vancomycin concentration, mean ± standard deviation: 8.52 ± 5.93 mg/L
Gram-positive bacteria
  treatment failure rate: 16%
[4]; multicenter study, Chinese children, 37.79 ± 11.31 mg/kg/day
  microbiological eradication rate: > 80%
[4]; pediatric patients with median AUC/MIC between 200 and 300, ref 40 (Shen et al.)
  overall clinical effective rate: 92.6%
[5]; after intravenous administration
  fraction eliminated by the renal system and excreted in the urine as a prototype: approximately 90%
[5]; reported to reach as high as
  inter-individual variability (IIV) of clearance (CL): ≤ 99.2%
[5]; summarized in a systematic review
  known range of weight-adjusted CL in pediatric patients: 0.258 to 4.25 mL/min/kg
[6]
  MIC values of clinical isolates: ≤ 1 µg/mL

Source: PMC11247118 (CPT: Pharmacometrics & Systems Pharmacology, 2024)
